Laboratory results published in ChEMBL document CHEMBL5375989, “Pioneering 4,11-Dioxo-4,11-dihydro-1H-anthra[2,3-d]imidazol-3-ium Compounds as Promising Survivin Inhibitors by Targeting ILF3/NF110 for Cancer Therapy” (J Med Chem, 2023).

Key:
HUVEC = experiment: Antiproliferative activity against human HUVEC cells assessed as inhibition of cell growth measured after 48 hrs by MTT assay; assay type: toxicity, cell-based; conditions: huvec
[1] = Toxicity in BALB/c mouse assessed as morphological changes in heart at 2 to 4 mg/kg by H and E staining based analysis; assay type: organism-based; conditions: in vivo, dose 2-4 mg/kg
A549 [2] = experiment: Antiproliferative activity against survivin silenced human A549 cells assessed as inhibition of cell growth measured after 48 hrs by MTT assay; assay type: functional, cell-based; conditions: A549, 48 h
NIH3T3 = experiment: Antiproliferative activity against mouse NIH3T3 cells assessed as inhibition of cell growth measured after 48 hrs by MTT assay; assay type: toxicity, cell-based; conditions: nih3t3
[3] = Drug distribution in BALB/C nude mouse tumor xenografted with human A549 cells at 2 mg/kg measured after 2 to 6 hrs by UPLC-3Q analysis; assay type: ADME, organism-based, Neoplasm; conditions: in vivo, time 2-6 hrs
A549 [4] = experiment: Induction of apoptosis in human A549 cells assessed as necrotic cells at 0.1 uM measured after 48 hrs by annexin V and PI staining based flow cytometry analysis (reference value: 1.47%); assay type: functional
[5] = Toxicity in BALB/c nude mouse assessed as body weight loss at 4 mg/kg, sc administered every 2 days for 14 days; assay type: organism-based; conditions: in vivo, 336 h, time 14 day
[6] = Drug uptake in Sprague-Dawley rat blood at 2 mg/kg measured after 24 hrs by UPLC-3Q analysis; assay type: ADME, organism-based; conditions: in vivo
[7] = Toxicity in BALB/c nude mouse assessed as death at 4 mg/kg, sc administered every 2 days for 14 days; assay type: organism-based; conditions: in vivo, 336 h, time 14 day
[8] = Selectivity index, ratio of IC50 for mouse L929 cells to IC50 for human A549 cells; assay type: toxicity; conditions: L929 cells and A549 cells, read-out: Ratio IC50
A549 [9] = experiment: Antitumor activity against human A549 cells xenografted in BALB/c nude mouse assessed as inhibition of tumor growth at 4 mg/kg, sc administered every 2 days for 14 days relative to control; assay type: functional; parameters: scale not given: the % may be the effect or the level left; conditions: time 14 day
MRC5 = experiment: Antiproliferative activity against human MRC5 cells assessed as inhibition of cell growth measured after 48 hrs by MTT assay; assay type: toxicity, cell-based; conditions: mrc5
HepG2 = experiment: Antiproliferative activity against human HepG2 cells assessed as inhibition of cell growth measured after 48 hrs by MTT assay; assay type: functional, cell-based; conditions: hepg2
A549 [10] = experiment: Induction of apoptosis in human A549 cells assessed as early apoptotic cells at 0.1 uM measured after 48 hrs by annexin V and PI staining based flow cytometry analysis (reference value: 0.71%); assay type: functional
[11] = Drug distribution in BALB/C nude mouse heart xenografted with human A549 cells at 2 mg/kg measured after 2 to 6 hrs by UPLC-3Q analysis; assay type: ADME, organism-based; conditions: in vivo, time 2-6 hrs
[12] = Toxicity in BALB/c nude mouse assessed as effect on body weight at 2 mg/kg, sc administered every 2 days for 14 days; assay type: organism-based; conditions: in vivo, 336 h, time 14 day
A549 [13] = experiment: Induction of apoptosis in human A549 cells assessed as necrotic cells at 0.25 uM measured after 48 hrs by annexin V and PI staining based flow cytometry analysis (reference value: 1.47%); assay type: functional
A549 [14] = experiment: Induction of apoptosis in human A549 cells assessed as late apoptotic cells at 0.25 uM measured after 48 hrs by annexin V and PI staining based flow cytometry analysis (reference value: 4.70%); assay type: functional

Cn1c[n+](C)c2c1C(=O)c1cc3ccccc3cc1C2=O.[I-]
IC50 (HUVEC): 6.66 µM | Activity [1]: Non-Toxic | IC50 (A549 [2]): 980 nM | IC50 (NIH3T3): 14 µM | Drug uptake [3]: Active | Activity (A549 [4]): 6.62% | Activity [5]: Non-Toxic | Drug uptake [6]: Active | Activity [7]: Non-Toxic | selectivity ratio [8]: 2390 | Activity (A549 [9]): 83.6% | IC50 (MRC5): 6.9 µM | IC50 (HepG2): 250 nM | Activity (A549 [10]): 2.55% | Drug uptake [11]: Not Active | Activity [12]: Non-Toxic | Activity (A549 [13]): 4.32% | Activity (A549 [14]): 90%
